Measurements taken from patent US20190185518A9, “WARHEAD-CONTAINING PEPTIDOMIMETIC MACROCYCLES AS MODULATORS OF BFL-1” (AILERON Therapeutics, Inc., priority 2017, published 2019).
Positions of bridges follow the written chain, without caps; N, C: chain ends. Non-standard residues stand in square brackets, D forms with d. Residues, ends and D or L forms follow the SMILES beside them. hPhe = N[C@@H](CCc1ccccc1)C(=O)O; R8 = C=CCCCCCC[C@@](C)(N)C(=O)O; S5 = C=CCCC[C@](C)(N)C(=O)O

What was measured:
Mcl-1 = Mcl-1 (Homo sapiens, UniProt Q07820); test: Ki determination for Mcl-1 (BCL-2 family binding spectrum); conditions: read-out: Ki MCL-1
Procedure, shortened: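 Binding to Mcl-1 was measured as displacement of a fluorescein-labelled macrocyclic peptidomimetic, read by fluorescence polarization. Constants were fitted by nonlinear regression.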

Bcl-2 = Bcl-2 (Homo sapiens, UniProt P10415); test: Ki determination for Bcl-2 (BCL-2 family binding spectrum); conditions: read-out: Ki BCL-2
Procedure, shortened: (§1)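 Competitive fluorescence polarization: compounds (1 nM–1 mM) with 25 nM fluoresceinated peptidomimetic macrocycle and 50 nM protein in 140 mM NaCl, 50 mM Tris-HCl pH 7.4, 30 min at room temperature. Constants from nonlinear regression.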

Bcl-xL = Bcl-xL (Homo sapiens, UniProt Q07817); test: Ki determination for Bcl-xL (BCL-2 family binding spectrum); conditions: read-out: Ki BCL-XL
Procedure, shortened: as §1

Chain of Mcl-1 (Q07820 whole entry, species assumed): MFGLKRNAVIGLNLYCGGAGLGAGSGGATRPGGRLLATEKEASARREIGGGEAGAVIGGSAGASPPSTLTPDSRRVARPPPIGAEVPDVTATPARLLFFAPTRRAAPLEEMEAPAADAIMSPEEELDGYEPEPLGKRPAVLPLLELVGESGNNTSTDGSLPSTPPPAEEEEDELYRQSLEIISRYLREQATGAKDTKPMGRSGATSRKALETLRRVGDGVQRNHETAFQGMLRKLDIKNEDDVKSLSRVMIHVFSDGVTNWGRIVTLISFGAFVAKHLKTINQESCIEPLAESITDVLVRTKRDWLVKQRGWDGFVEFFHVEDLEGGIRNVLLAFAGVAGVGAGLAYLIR
Chain of Bcl-xL (Q07817 whole entry, species assumed): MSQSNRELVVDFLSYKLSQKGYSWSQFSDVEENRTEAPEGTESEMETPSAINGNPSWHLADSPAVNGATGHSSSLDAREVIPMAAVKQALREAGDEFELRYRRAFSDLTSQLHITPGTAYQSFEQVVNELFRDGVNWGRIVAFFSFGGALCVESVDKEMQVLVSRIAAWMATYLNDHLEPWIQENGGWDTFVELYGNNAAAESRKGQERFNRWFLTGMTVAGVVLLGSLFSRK
Chain of Bcl-2 (P10415 whole entry, species assumed): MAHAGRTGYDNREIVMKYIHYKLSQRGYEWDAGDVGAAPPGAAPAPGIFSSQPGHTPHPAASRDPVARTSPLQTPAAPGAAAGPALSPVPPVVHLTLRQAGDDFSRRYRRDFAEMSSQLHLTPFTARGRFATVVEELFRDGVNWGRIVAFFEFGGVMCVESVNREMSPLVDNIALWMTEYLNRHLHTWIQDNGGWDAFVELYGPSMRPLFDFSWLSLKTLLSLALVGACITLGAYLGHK

Compound | Ki (Mcl-1) | Ki (Bcl-2) | Ki (Bcl-xL)
CC[C@H](C)[C@H](NC(C)=O)C(=O)N[C@@H](Cc1c[nH]c2ccccc12)C(=O)N[C@H](C(=O)N[C@@H](C)C(=O)N[C@@H](CCC(N)=O)C(=O)N[C@@H](C)C(=O)N[C@@H](C)C(=O)N[C@@H](CCCNC(=N)N)C(=O)N[C@]1(C)CCCCCCC=CCCC[C@@](C)(C(=O)N[C@@H](Cc2ccc(O)cc2)C(=O)N[C@@H](Cc2ccc(O)cc2)C(=O)N[C@@H](C)C(N)=O)NC(=O)[C@H](CC(N)=O)NC(=O)[C@H](Cc2ccccc2)NC(=O)[C@H](C)NC(=O)[C@H](CC(=O)O)NC(=O)CNC(=O)[C@H]([C@@H](C)CC)NC1=O)[C@@H](C)CC [compound 1675] (Ac-IWIAQAAR[R8]IGDAFN[S5]YYA-NH2; staple 9-16) | > 1 µM | > 1 µM | > 1 µM
CC[C@H](C)[C@H](NC(C)=O)C(=O)N[C@@H](Cc1c[nH]c2ccccc12)C(=O)N[C@H](C(=O)N[C@@H](C)C(=O)N[C@@H](CCC(N)=O)C(=O)N[C@@H](C)C(=O)N[C@@H](CC(C)C)C(=O)N[C@@H](CCCNC(=N)N)C(=O)N[C@]1(C)CCCCCCC=CCCC[C@@](C)(C(=O)N[C@@H](Cc2ccc(O)cc2)C(=O)N[C@@H](Cc2ccc(O)cc2)C(=O)N[C@@H](C)C(N)=O)NC(=O)[C@H](CC(N)=O)NC(=O)[C@H](Cc2ccccc2)NC(=O)[C@H](C)NC(=O)[C@H](CC(N)=O)NC(=O)CNC(=O)[C@H]([C@@H](C)CC)NC1=O)[C@@H](C)CC [compound 1674] (Ac-IWIAQALR[R8]IGNAFN[S5]YYA-NH2; staple 9-16) | 0.195 µM | 0.405 µM | 0.416 µM
CC[C@H](C)[C@H](NC(C)=O)C(=O)N[C@@H](Cc1c[nH]c2ccccc12)C(=O)N[C@H](C(=O)N[C@@H](C)C(=O)N[C@@H](CCC(N)=O)C(=O)N[C@@H](C)C(=O)N[C@@H](CC(C)C)C(=O)N[C@@H](CCCNC(=N)N)C(=O)N[C@]1(C)CCCCCCC=CCCC[C@@](C)(C(=O)N[C@@H](Cc2ccc(O)cc2)C(=O)N[C@@H](Cc2ccc(O)cc2)C(=O)N[C@@H](C)C(N)=O)NC(=O)[C@H](CC(N)=O)NC(=O)[C@H](C)NC(=O)[C@H](C)NC(=O)[C@H](CC(=O)O)NC(=O)CNC(=O)[C@H]([C@@H](C)CC)NC1=O)[C@@H](C)CC [compound 1661] (Ac-IWIAQALR[R8]IGDAAN[S5]YYA-NH2; staple 9-16) | 0.0075 µM | 0.14 µM | 0.402 µM
CC[C@H](C)[C@H](NC(C)=O)C(=O)N[C@@H](Cc1c[nH]c2ccccc12)C(=O)N[C@H](C(=O)N[C@@H](C)C(=O)N[C@@H](CCC(N)=O)C(=O)N[C@@H](C)C(=O)N[C@@H](CC(C)C)C(=O)N[C@@H](CCCNC(=N)N)C(=O)N[C@]1(C)CCCCCCC=CCCC[C@@](C)(C(=O)N[C@@H](Cc2ccc(O)cc2)C(=O)N[C@@H](Cc2c[nH]c3ccccc23)C(=O)N[C@@H](C)C(N)=O)NC(=O)[C@H](CC(N)=O)NC(=O)[C@H](Cc2ccccc2)NC(=O)[C@H](C)NC(=O)[C@H](CC(=O)O)NC(=O)CNC(=O)[C@H]([C@@H](C)CC)NC1=O)[C@@H](C)CC [compound 1758] (Ac-IWIAQALR[R8]IGDAFN[S5]YWA-NH2; staple 9-16) | 0.0039 µM | 0.0235 µM | 0.0154 µM
CC[C@H](C)[C@H](NC(C)=O)C(=O)N[C@@H](Cc1c[nH]c2ccccc12)C(=O)N[C@H](C(=O)N[C@@H](C)C(=O)N[C@@H](CCC(N)=O)C(=O)N[C@@H](C)C(=O)N[C@@H](CC(C)C)C(=O)N[C@@H](CCCNC(=N)N)C(=O)N[C@]1(C)CCCCCCC=CCCC[C@@](C)(C(=O)N[C@@H](Cc2ccc(O)cc2)C(=O)N[C@@H](Cc2ccc(O)cc2)C(=O)N[C@@H](C)C(N)=O)NC(=O)[C@H](CC(N)=O)NC(=O)[C@H](Cc2ccccc2)NC(=O)[C@H](CCC(N)=O)NC(=O)[C@H](CC(=O)O)NC(=O)CNC(=O)[C@H]([C@@H](C)CC)NC1=O)[C@@H](C)CC [compound 1650] (Ac-IWIAQALR[R8]IGDQFN[S5]YYA-NH2; staple 9-16) | 0.0052 µM | 0.067 µM | 0.012 µM
CC[C@H](C)[C@H](NC(C)=O)C(=O)N[C@@H](Cc1c[nH]c2ccccc12)C(=O)N[C@H](C(=O)N[C@@H](C)C(=O)N[C@@H](CCC(N)=O)C(=O)N[C@@H](C)C(=O)N[C@@H](CC(C)C)C(=O)N[C@@H](CCCNC(=N)N)C(=O)N[C@]1(C)CCCCCCC=CCCC[C@@](C)(C(=O)N[C@@H](Cc2ccc(O)cc2)C(=O)N[C@@H](Cc2ccc(O)cc2)C(=O)N[C@@H](C)C(N)=O)NC(=O)[C@H](CC(N)=O)NC(=O)[C@H](Cc2ccccc2)NC(=O)[C@H](CCC(N)=O)NC(=O)[C@H](CC(=O)O)NC(=O)[C@H](C)NC(=O)[C@H]([C@@H](C)CC)NC1=O)[C@@H](C)CC [compound 1666] (Ac-IWIAQALR[R8]IADQFN[S5]YYA-NH2; staple 9-16) | 0.116 µM | 0.0256 µM | 0.0077 µM
CC[C@H](C)[C@H](NC(C)=O)C(=O)N[C@@H](Cc1c[nH]c2ccccc12)C(=O)N[C@H](C(=O)N[C@@H](C)C(=O)N[C@@H](CCC(N)=O)C(=O)N[C@@H](C)C(=O)N[C@@H](CC(C)C)C(=O)N[C@@H](CCCNC(=N)N)C(=O)N[C@]1(C)CCCCCCC=CCCC[C@@](C)(C(=O)N[C@@H](Cc2ccc(O)cc2)C(=O)N[C@@H](Cc2ccc(O)cc2)C(=O)N[C@@H](C)C(N)=O)NC(=O)[C@H](CC(N)=O)NC(=O)[C@H](Cc2ccccc2)NC(=O)[C@H](CCC(N)=O)NC(=O)[C@H](CC(=O)O)NC(=O)CNC(=O)[C@H](C)NC1=O)[C@@H](C)CC [compound 1668] (Ac-IWIAQALR[R8]AGDQFN[S5]YYA-NH2; staple 9-16) | 0.122 µM | 0.0048 µM | 0.0019 µM
CC[C@H](C)[C@H](NC(C)=O)C(=O)N[C@@H](Cc1c[nH]c2ccccc12)C(=O)N[C@H](C(=O)N[C@@H](C)C(=O)N[C@@H](CCC(N)=O)C(=O)N[C@@H](C)C(=O)N[C@@H](CC(C)C)C(=O)N[C@@H](CCCNC(N)=O)C(=O)N[C@]1(C)CCCCCCC=CCCC[C@@](C)(C(=O)N[C@@H](Cc2ccc(O)cc2)C(=O)N[C@@H](Cc2ccc(O)cc2)C(=O)N[C@@H](C)C(N)=O)NC(=O)[C@H](CC(N)=O)NC(=O)[C@H](Cc2ccccc2)NC(=O)[C@H](C)NC(=O)[C@H](CC(N)=O)NC(=O)CNC(=O)[C@H]([C@@H](C)CC)NC1=O)[C@@H](C)CC [compound 1772] | > 1 µM | > 1 µM | > 1 µM
CC[C@H](C)[C@H](NC(C)=O)C(=O)N[C@@H](Cc1c[nH]c2ccccc12)C(=O)N[C@H](C(=O)N[C@@H](C)C(=O)N[C@@H](CCC(N)=O)C(=O)N[C@@H](C)C(=O)N[C@@H](CCc1ccccc1)C(=O)N[C@@H](CCCNC(=N)N)C(=O)N[C@]1(C)CCCCCCC=CCCC[C@@](C)(C(=O)N[C@@H](Cc2ccc(O)cc2)C(=O)N[C@@H](Cc2ccc(O)cc2)C(=O)N[C@@H](C)C(N)=O)NC(=O)[C@H](CC(N)=O)NC(=O)[C@H](Cc2ccccc2)NC(=O)[C@H](C)NC(=O)[C@H](CC(=O)O)NC(=O)CNC(=O)[C@H]([C@@H](C)CC)NC1=O)[C@@H](C)CC [compound 1692] (Ac-IWIAQA[hPhe]R[R8]IGDAFN[S5]YYA-NH2; staple 9-16) | 0.0075 µM | > 1 µM | > 1 µM
CC[C@H](C)[C@H](NC(C)=O)C(=O)N[C@@H](Cc1c[nH]c2ccccc12)C(=O)N[C@H](C(=O)N[C@@H](C)C(=O)N[C@@H](CCC(N)=O)C(=O)N[C@@H](C)C(=O)N[C@@H](CC(C)C)C(=O)N[C@@H](Cc1c[nH]cn1)C(=O)N[C@]1(C)CCCCCCC=CCCC[C@@](C)(C(=O)N[C@@H](Cc2ccc(O)cc2)C(=O)N[C@@H](Cc2ccc(O)cc2)C(=O)N[C@@H](C)C(N)=O)NC(=O)[C@H](CC(N)=O)NC(=O)[C@H](Cc2ccccc2)NC(=O)[C@H](C)NC(=O)[C@H](CC(=O)O)NC(=O)CNC(=O)[C@H]([C@@H](C)CC)NC1=O)[C@@H](C)CC [compound 1657] (Ac-IWIAQALH[R8]IGDAFN[S5]YYA-NH2; staple 9-16) | > 1 µM | > 1 µM | > 1 µM
CC[C@H](C)[C@H](NC(C)=O)C(=O)N[C@@H](Cc1c[nH]c2ccccc12)C(=O)N[C@H](C(=O)N[C@@H](C)C(=O)N[C@@H](CCC(N)=O)C(=O)N[C@@H](C)C(=O)N[C@@H](CC(C)C)C(=O)N[C@@H](Cc1c[nH]cn1)C(=O)N[C@]1(C)CCCCCCC=CCCC[C@@](C)(C(=O)N[C@@H](Cc2ccc(O)cc2)C(=O)N[C@@H](Cc2ccc(O)cc2)C(=O)N[C@@H](C)C(N)=O)NC(=O)[C@H](CC(N)=O)NC(=O)[C@H](Cc2ccccc2)NC(=O)[C@H](CCC(N)=O)NC(=O)[C@H](CC(=O)O)NC(=O)CNC(=O)[C@H]([C@@H](C)CC)NC1=O)[C@@H](C)CC [compound 1658] (Ac-IWIAQALH[R8]IGDQFN[S5]YYA-NH2; staple 9-16) | > 1 µM | > 1 µM | > 1 µM
CC[C@H](C)[C@H](NC(C)=O)C(=O)N[C@@H](Cc1c[nH]c2ccccc12)C(=O)N[C@H](C(=O)N[C@@H](C)C(=O)N[C@@H](C)C(=O)N[C@@H](C)C(=O)N[C@@H](CC(C)C)C(=O)N[C@@H](CCCNC(=N)N)C(=O)N[C@]1(C)CCCCCCC=CCCC[C@@](C)(C(=O)N[C@@H](Cc2ccc(O)cc2)C(=O)N[C@@H](Cc2ccc(O)cc2)C(=O)N[C@@H](C)C(N)=O)NC(=O)[C@H](CC(N)=O)NC(=O)[C@H](Cc2ccccc2)NC(=O)[C@H](CCC(N)=O)NC(=O)[C@H](CC(=O)O)NC(=O)CNC(=O)[C@H]([C@@H](C)CC)NC1=O)[C@@H](C)CC [compound 1652] (Ac-IWIAAALR[R8]IGDQFN[S5]YYA-NH2; staple 9-16) | 0.006 µM | 0.022 µM | 0.004 µM
